Measurements as given in US6322962A, “Sterol-regulated Site-1 protease and assays of modulators thereof” (Board of Regents, The University of Texas System, priority 1999, dated 2001).
Values belong to the compound of their own block, whether it stands above or below them. Square brackets hold non-standard residues; d marks the D form. Peptide text beside a SMILES is read from it. * marks the point of attachment. Sta = CC(C)C[C@H](N)[C@@H](O)CC(=O)O; AMC = Cc1cc(=O)oc2cc(N*)ccc12; Isovaleryl = CC(C)CC(=O)*; Nle = CCCC[C@H](N)C(=O)O; Boc = CC(C)(C)OC(=O)*

Experiments:
[1] = molecular target: T1, purified S1P(983)-C (Cricetulus griseus, UniProt Q9Z2A8, T875N); assay: Fluorogenic peptide assay for S1P activity (cleavage of MCA-conjugated peptides); type: biochemical, hamster; details: for Relative Activity: Ac-VFRSLK-MCA set at 1.0; for cleavage of the peptide: result in words
T1 construct: Truncated S1P (amino acids 1-983); GGR linker (NotI site); made in house; host or cells: SRD-12B cells (mutant CHO cells lacking S1P) stably transfected with pCMV-S1P(983)-Myc-His (TR-3117, 'S1P(983) cells'); secreted into the medium and purified on Ni-NTA
T1 sequence (Q9Z2A8 187-983 T875N): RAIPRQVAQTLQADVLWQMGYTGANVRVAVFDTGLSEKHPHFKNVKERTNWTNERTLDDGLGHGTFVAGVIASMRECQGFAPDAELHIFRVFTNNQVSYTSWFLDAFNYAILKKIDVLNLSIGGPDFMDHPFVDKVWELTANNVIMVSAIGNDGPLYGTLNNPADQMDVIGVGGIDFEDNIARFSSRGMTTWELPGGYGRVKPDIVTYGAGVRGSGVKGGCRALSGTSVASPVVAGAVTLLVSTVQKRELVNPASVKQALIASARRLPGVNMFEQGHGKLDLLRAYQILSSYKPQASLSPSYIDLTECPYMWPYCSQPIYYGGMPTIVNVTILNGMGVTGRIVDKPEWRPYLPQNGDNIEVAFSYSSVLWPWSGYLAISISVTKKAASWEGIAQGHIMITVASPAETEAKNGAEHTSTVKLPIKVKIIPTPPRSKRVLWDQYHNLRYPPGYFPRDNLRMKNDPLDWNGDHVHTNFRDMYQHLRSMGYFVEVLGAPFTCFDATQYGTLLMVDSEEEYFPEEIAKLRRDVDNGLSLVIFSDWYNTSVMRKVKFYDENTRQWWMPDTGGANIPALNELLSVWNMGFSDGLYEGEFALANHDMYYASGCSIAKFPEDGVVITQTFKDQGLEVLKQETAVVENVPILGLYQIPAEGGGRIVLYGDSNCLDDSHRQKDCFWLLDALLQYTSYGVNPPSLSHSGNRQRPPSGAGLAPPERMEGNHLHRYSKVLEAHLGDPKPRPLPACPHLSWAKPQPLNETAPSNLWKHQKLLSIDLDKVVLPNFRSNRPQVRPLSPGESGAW
Experimental: (§1) Fluorogenic Peptide Assay for S1P Activity
S1P activity was measured fluorometrically with MCA-conjugated peptidyl substrates. Each reaction was carried out in 0.2 ml of assay buffer (25 mM Tris, 25 mM Mes, 25 mM acetic acid, and 1 mM CaCl2 adjusted to pH 8.0 with concentrated NaOH). Reactions contained MCA-peptide (final concentration 100 μM, added in 2 μl DMSO) and […] of purified S1P(983)-C. After incubation for 0.5-5 h at 37° C., each reaction was terminated by addition of 1 ml of ice-cold 5 mM sodium EDTA. The liberated 7-amino-4-methyl-coumarin (AMC) was measured with a Perkin-ElmerLS-30 luminescence spectrometer (360 nm excitation, 460 nm emission). A standard curve of fluorescence intensity was generated with different concentrations of AMC (Promega).
Similar substrates have been used to assay furin, prohormone convertases, and other subtilisin-related enzymes (Nakayama, 1997). […] The sequence of this peptide corresponds to the sequence at Site-B of S1P, which is known to be cleaved by S1P in an autocatalytic reaction. Fluorescence rose linearly with time for 5 h. […] This differs from the observations with furin and the prohormone convertases, whose pH optima are generally in the range of 6-7 (Nakayama, 1997).
The indicated fluorogenic peptide-MCA (100 μM) was incubated with 3 μg of purified S1P(983)-C at 37° C. for 5 h. The S1P activity of Ac-VFRSLK-MCA (SEQ ID NO:13, 930 pmol per min/mg protein) was set at 1.0, and the activity of the other substrates was expressed relative to this value. Each value represents the average of duplicate incubations, which varied from each other by <10%.

[2] = molecular target: T1, purified S1P(983)-C; assay: Effect of protease inhibitors on S1P(983)-C mediated cleavage of Ac-VFRSLK-MCA; type: biochemical, hamster; details: for inhibition of S1P(983)-C: result in words
Experimental: as §1
S1P activity was measured fluorometrically with MCA-conjugated peptidyl substrates. […] After incubation for 0.5-5 h at 37° C., each reaction was terminated by addition of 1 ml of ice-cold 5 mM sodium EDTA. The liberated 7-amino-4-methyl-coumarin (AMC) was measured with a Perkin-ElmerLS-30 luminescence spectrometer (360 nm excitation, 460 nm emission). A standard curve of fluorescence intensity was generated with different concentrations of AMC (Promega).

[3] = 100 μM peptide-MCA, 3 μg S1P(983)-C, 37° C., 5 h
[4] = 0.1 mM, 100 μM Ac-VFRSLK-MCA, 37° C., 5 h
[5] = 1 mM, 100 μM Ac-VFRSLK-MCA, 37° C., 5 h
[6] = 10 mM, 100 μM Ac-VFRSLK-MCA, 37° C., 5 h
[7] = pH 8, 0.1 mM, 100 μM Ac-VFRSLK-MCA, 37° C., 5 h, read-out: AMC Liberated, % control
[8] = pH 8, 1 mM, 100 μM Ac-VFRSLK-MCA, 37° C., 5 h, read-out: AMC Liberated, % control
[9] = pH 8, 10 mM, 100 μM Ac-VFRSLK-MCA, 37° C., 5 h, read-out: AMC Liberated, % control
[10] = 3 mM, 100 μM Ac-VFRSLK-MCA, 37° C., 5 h
[11] = pH 8, 3 mM, 100 μM Ac-VFRSLK-MCA, 37° C., 5 h, read-out: AMC Liberated, % control
[12] = 0.0003 mM, 100 μM Ac-VFRSLK-MCA, 37° C., 5 h

- Relative Activity [1, 3]: < 0.1
Compound: CC(=O)N[C@@H](CO)C(=O)NCC(=O)N[C@@H](CO)C(=O)NCC(=O)N[C@@H](CCCNC(=N)N)C(=O)N[C@@H](CO)C(=O)N[C@H](C(=O)N[C@@H](CC(C)C)C(=O)Nc1ccc2c(C)cc(=O)oc2c1)C(C)C (Ac-SGSGRSVL-{AMC})

- AMC Liberated [2, 4]: 615 pmol/tube
- AMC Liberated [2, 5]: 323 pmol/tube
- AMC Liberated [2, 6]: 99 pmol/tube
- remaining activity at 100 µM [2, 7]: 73%
- remaining activity at 1000 µM [2, 8]: 38%
- remaining activity at 10000 µM [2, 9]: 12%
Compound: O[C@H](CS)[C@H](O)CS (racemic) [Dithiothreitol]

- AMC Liberated [2, 10]: 361 pmol/tube
- AMC Liberated [2, 6]: 253 pmol/tube
- remaining activity at 3000 µM [2, 11]: 43%
- remaining activity at 10000 µM [2, 9]: 30%
- inhibition of S1P(983)-C [2]: partially inhibited
Compound: c1cnc2c(c1)ccc1cccnc12 [1,10-Phenanthroline, 1,10-phenanthroline]

Compound: CCCC[C@@H](C=O)NC(=O)[C@H](CC(C)C)NC(=O)[C@H](CC(C)C)NC(C)=O [ALLN, N-acetyl-leucinal-leucinal-norleucinal] (Ac-Leu-Leu-[Nle]-aldehyde)
- AMC Liberated [2, 4]: 811 pmol/tube
- remaining activity at 100 µM [2, 7]: 97%
- inhibition of S1P(983)-C [2]: resistant

Compound: N=C(N)c1ccc(CS(=O)(=O)F)cc1 [APMSF, (4-amidinophenyl)-methancsulfonyl fluoride]
- AMC Liberated [2, 5]: 793 pmol/tube
- AMC Liberated, % control [2, 5]: 95 % control
- inhibition of S1P(983)-C [2]: resisted

- Relative Activity [1, 3]: 0.47
- cleavage of the peptide [1]: cleaves
Compound: CC(=O)N[C@@H](CCCNC(=N)N)C(=O)N[C@@H](CO)C(=O)N[C@@H](CC(C)C)C(=O)N[C@@H](CCCCN)C(=O)Nc1ccc2c(C)cc(=O)oc2c1 [Ac-RSLK-MCA, Ac-Arg-Ser-Leu-Lys-MCA] (Ac-RSLK-{AMC})

- Relative Activity [1, 3]: < 0.1
- cleavage of the peptide [1]: did not cleave
Compound: CC(=O)N[C@@H](CO)C(=O)NCC(=O)N[C@@H](CCCNC(=N)N)C(=O)N[C@@H](CO)C(=O)N[C@H](C(=O)N[C@@H](CC(C)C)C(=O)Nc1ccc2c(C)cc(=O)oc2c1)C(C)C [Ac-SGRSVL-MCA, Ac-Ser-Gly-Arg-Ser-Val-Leu-MCA] (Ac-SGRSVL-{AMC})

- Relative Activity [1, 3]: < 0.1
- cleavage of the peptide [1]: no detectable cleavage
Compound: CC(=O)N[C@H](C(=O)N[C@@H](Cc1ccccc1)C(=O)N[C@@H](C)C(=O)N[C@@H](CO)C(=O)N[C@@H](CC(C)C)C(=O)N[C@@H](CCCCN)C(=O)Nc1ccc2c(C)cc(=O)oc2c1)C(C)C [Ac-VFASLK-MCA, Ac-Val-Phe-Ala-Ser-Leu-Lys-MCA] (Ac-VFASLK-{AMC})

- S1P activity [1, 3]: 930 pmol per min/mg protein
- Relative Activity [1, 3]: 1.0
- cleavage at pH 6 ([1]; pH 6): very little cleavage
- pH of maximal rate of cleavage ([1]; pH curve, FIG. 22C): 8 pH
- time over which fluorescence rose linearly ([1]; purified secreted S1P(983)-C, 37° C.): 5 h
Compound: CC(=O)N[C@H](C(=O)N[C@@H](Cc1ccccc1)C(=O)N[C@@H](CCCNC(=N)N)C(=O)N[C@@H](CO)C(=O)N[C@@H](CC(C)C)C(=O)N[C@@H](CCCCN)C(=O)Nc1ccc2c(C)cc(=O)oc2c1)C(C)C [Ac-VFRSLK-MCA, Ac-Val-Phe-Arg-Ser-Leu-Lys-MCA] (Ac-VFRSLK-{AMC})

- Relative Activity [1, 3]: < 0.1
- cleavage of the peptide [1]: did not cleave
Compound: CC(=O)N[C@H](C(=O)N[C@@H](Cc1ccccc1)C(=O)N[C@@H](CCCNC(=N)N)C(=O)N[C@@H](CO)C(=O)N[C@@H](CCCNC(=N)N)C(=O)N[C@@H](CCCNC(=N)N)C(=O)Nc1ccc2c(C)cc(=O)oc2c1)C(C)C [Ac-VFRSRR-MCA, Ac-Val-Phe-Arg-Ser-Arg-Arg-MCA] (Ac-VFRSRR-{AMC})

- Relative Activity [1, 3]: < 0.1
- cleavage of the peptide [1]: did not cleave
- cleavage of the peptide ([1]; listed as RVRR-MCA): does not cleave
Compound: Cc1cc(=O)oc2cc(NC(=O)[C@H](CCCNC(=N)N)NC(=O)[C@H](CCCNC(=N)N)NC(=O)[C@@H](NC(=O)[C@H](CCCNC(=N)N)NC(=O)OC(C)(C)C)C(C)C)ccc12 [Boc-RVRR-MCA, Boc-Arg-Val-Arg-Arg-MCA] (Boc-RVRR-{AMC})

- AMC Liberated [2, 10]: 609 pmol/tube
- AMC Liberated ([2]; 30 mM, 100 μM Ac-VFRSLK-MCA, 37° C., 5 h): 305 pmol/tube
- remaining activity at 3000 µM [2, 11]: 73%
- remaining activity at 30000 µM ([2]; pH 8, 30 mM, 100 μM Ac-VFRSLK-MCA, 37° C., 5 h, read-out: AMC Liberated, % control): 36%
- inhibition of S1P(983)-C [2]: partially inhibited
Compound: O=C(O)CN(CCOCCOCCN(CC(=O)O)CC(=O)O)CC(=O)O [EGTA]

Compound: CC(=O)N[C@@H](CC(C)C)C(=O)N[C@@H](CC(C)C)C(=O)N[C@H](C=O)CCCNC(=N)N [Leupeptin]
- AMC Liberated [2, 5]: 754 pmol/tube
- remaining activity at 1000 µM [2, 8]: 90%
- inhibition of S1P(983)-C [2]: resistant

Compound: O=S(=O)(F)Cc1ccccc1 [PMSF, phenylmethylsulfonyl fluoride]
- AMC Liberated [2, 5]: 853 pmol/tube
- AMC Liberated, % control [2, 5]: 102 % control
- AMC Liberated [2, 6]: 690 pmol/tube
- AMC Liberated, % control [2, 6]: 82 % control
- inhibition of S1P(983)-C [2]: resisted

Compound: NCCc1ccc(S(=O)(=O)F)cc1 [Pefabloc ®]
- AMC Liberated [2, 5]: 731 pmol/tube
- AMC Liberated, % control [2, 5]: 87 % control
- AMC Liberated [2, 10]: 366 pmol/tube
- AMC Liberated, % control [2, 10]: 44 % control
- AMC Liberated [2, 6]: 60 pmol/tube
- AMC Liberated, % control [2, 6]: 7 % control
- inhibition of S1P(983)-C [2]: inhibited by high concentrations

Compound: CC(C)CC(=O)N[C@H](C(=O)N[C@H](C(=O)N[C@@H](CC(C)C)[C@@H](O)CC(=O)N[C@@H](C)C(=O)N[C@@H](CC(C)C)[C@@H](O)CC(=O)O)C(C)C)C(C)C [Pepstatin] (Isovaleryl-VV[Sta]A[Sta]-OH)
- AMC Liberated ([2]; 0.01 mM, 100 μM Ac-VFRSLK-MCA, 37° C., 5 h): 798 pmol/tube
- remaining activity at 10 µM ([2]; pH 8, 0.01 mM, 100 μM Ac-VFRSLK-MCA, 37° C., 5 h, read-out: AMC Liberated, % control): 95%
- inhibition of S1P(983)-C [2]: resistant

Compound: Aprotinin
- AMC Liberated [2, 12]: 745 pmol/tube
- AMC Liberated, % control [2, 12]: 89 % control
- inhibition of S1P(983)-C [2]: resistant

Compound: calcium
- calcium concentrations at which the reaction was inhibited [2]: above 3 mM
- effect of omission of calcium on the enzyme reaction ([2]; omission during purification and in the assay buffer): not affected
